In patent US20230233569A1 (Revolution Medicines, Inc., priority 2020, published 2023):
Where two headings read alike, the source gives them in different places.

Tests used:
[1] = system: Capan-1 (K-Ras G12V); assay: CellTiter-Glo cell viability assay, 5-day treatment; assay type: cell-based; details: Homo sapiens, CAPAN-1, 120 h, 5-day treatment; read-out: Capan-1 Cell Viability assay data (K-Ras G12V, IC50)
In short: (§1)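 Seeded cells received test compound by direct dispensing. On day 5 the plates sat at room temperature approximately 30 minutes, then luminescence was measured. Data were normalized to DMSO and curve-fitted with four parameters.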

[2] = system: NCI-H358 (K-Ras G12C); assay: as above; assay type: cell-based; details: Homo sapiens, NCI-H358, 120 h, 5-day treatment; read-out: H358 Cell Viability assay data (K-Ras G12C, IC50)
In short: as §1

[3] = target: KRAS G12C (Homo sapiens, UniProt P01116+P62937, G12C); assay: Disruption of BRAF RBD interaction with Ras (FRET / MOA assay, with Cyclophilin A); assay type: biochemical
In short: (§2)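 First, compounds at a ten-point threefold dilution series (highest final concentration 30 μM) were incubated with nucleotide-loaded K-Ras, Cyclophilin A and BRAF RBD for 3 h at 25 °C. Next, detection antibodies were added for 1.5 h. Finally, IC50 was calculated from TR-FRET ratio decreases against DMSO controls.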

[4] = target: KRAS G12D (Homo sapiens, UniProt P01116+P62937, G12D); assay: as above; assay type: biochemical
In short: as §2

[5] = target: KRAS G12S (Homo sapiens, UniProt P01116+P62937, G12S); assay: as above; assay type: biochemical
In short: as §2

[6] = target: KRAS G12V (Homo sapiens, UniProt P01116+P62937, G12V); assay: as above; assay type: biochemical
In short: as §2

[7] = target: KRAS G13C (Homo sapiens, UniProt P01116+P62937, G13C); assay: as above; assay type: biochemical
In short: as §2

[8] = target: KRAS G13D (Homo sapiens, UniProt P01116+P62937, G13D); assay: as above; assay type: biochemical
In short: as §2

[9] = target: KRAS WT (Homo sapiens, UniProt P01116+P62937); assay: as above; assay type: biochemical
In short: as §2

[10] = target: NRAS G12C (Homo sapiens, UniProt P01111+P62937, G12C); assay: as above; assay type: biochemical
[11] = target: KRAS Q61H (Homo sapiens, UniProt P01116+P62937, Q61H); assay: as above; assay type: biochemical
In short: (§3)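 IC50 reflects compound-driven Ras:Cyclophilin A ternary complex displacing BRAF RBD, read as lowered TR-FRET ratio relative to DMSO after Eu anti-His (10 nM) and APC anti-GST (50 nM) detection for 1.5 h. Prior incubation 3 h, 25° C, with 12.5 nM GMPPNP-loaded Ras, 50 nM BRAF RBD, 25 μM Cyclophilin A; top compound 30 μM.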

[12] = target: NRAS Q61K (Homo sapiens, UniProt P01111+P62937, Q61K); assay: as above; assay type: biochemical
In short: as §3

[13] = target: NRAS Q61R (Homo sapiens, UniProt P01111+P62937, Q61R); assay: as above; assay type: biochemical
In short: as §3

[14] = target: NRAS WT (Homo sapiens, UniProt P01111+P62937); assay: as above; assay type: biochemical
In short: as §3

[15] = read-out: KRAS G12C FRET data, IC50
[16] = read-out: KRAS G12D FRET data, IC50
[17] = read-out: KRAS G12S FRET data, IC50
[18] = KRAS G12V, read-out: KRAS G12V FRET data IC50
[19] = read-out: KRAS G13C FRET data, IC50
[20] = KRAS G13D, read-out: KRAS G13D FRET data IC50
[21] = KRAS WT, read-out: KRAS WT FRET data IC50
[22] = NRAS G12C, read-out: NRAS G12C FRET data IC50
[23] = KRAS Q61H, read-out: KRAS Q61H FRET data IC50
[24] = NRAS Q61K, read-out: NRAS Q61K FRET data IC50
[25] = NRAS Q61R, read-out: NRAS Q61R FRET data IC50
[26] = NRAS WT, read-out: NRAS WT FRET data IC50
[27] = KRAS G12V FRET data IC50, KRAS G12V
[28] = KRAS G13D FRET data IC50, KRAS G13D
[29] = KRAS WT FRET data IC50, KRAS WT
[30] = NRAS G12C FRET data IC50, NRAS G12C

Sequence of NRAS Q61K (P01111 whole entry Q61K): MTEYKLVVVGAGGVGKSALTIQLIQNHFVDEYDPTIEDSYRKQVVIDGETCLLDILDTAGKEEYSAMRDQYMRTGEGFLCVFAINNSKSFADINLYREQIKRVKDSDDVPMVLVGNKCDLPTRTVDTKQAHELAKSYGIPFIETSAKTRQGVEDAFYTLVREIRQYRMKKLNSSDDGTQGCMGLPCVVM
Sequence of NRAS Q61K (P62937 whole entry): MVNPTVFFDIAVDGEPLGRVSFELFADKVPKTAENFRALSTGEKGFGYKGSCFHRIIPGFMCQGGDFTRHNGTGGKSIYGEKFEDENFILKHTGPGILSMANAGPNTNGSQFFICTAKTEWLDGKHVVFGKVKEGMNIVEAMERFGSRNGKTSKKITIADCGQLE
Sequence of KRAS G12D (P01116 1-169 isoform P01116-2 G12D limits assumed): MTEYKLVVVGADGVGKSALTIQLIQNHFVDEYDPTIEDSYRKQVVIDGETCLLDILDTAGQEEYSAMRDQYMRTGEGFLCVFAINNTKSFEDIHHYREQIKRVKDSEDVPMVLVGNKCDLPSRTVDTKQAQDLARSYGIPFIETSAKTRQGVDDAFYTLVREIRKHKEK
Sequence of KRAS G12D (P62937 whole entry): as the sequence (P62937 whole entry) above
Sequence of KRAS G12S (P01116 1-169 isoform P01116-2 G12S limits assumed): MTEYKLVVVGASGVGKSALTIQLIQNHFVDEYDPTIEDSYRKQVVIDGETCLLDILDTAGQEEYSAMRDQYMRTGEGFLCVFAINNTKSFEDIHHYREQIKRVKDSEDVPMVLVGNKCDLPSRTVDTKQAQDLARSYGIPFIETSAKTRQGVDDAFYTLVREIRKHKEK
Sequence of KRAS G12S (P62937 whole entry): as the sequence (P62937 whole entry) above
Sequence of KRAS G12V (P01116 1-169 isoform P01116-2 G12V limits assumed): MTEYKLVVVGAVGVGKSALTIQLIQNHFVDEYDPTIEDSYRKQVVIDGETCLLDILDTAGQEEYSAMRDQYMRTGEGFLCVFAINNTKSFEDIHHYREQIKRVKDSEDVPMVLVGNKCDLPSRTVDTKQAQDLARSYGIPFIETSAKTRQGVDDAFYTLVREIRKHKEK
Sequence of KRAS G12V (P62937 whole entry): as the sequence (P62937 whole entry) above
Sequence of KRAS WT (P01116 1-169 isoform P01116-2 limits assumed): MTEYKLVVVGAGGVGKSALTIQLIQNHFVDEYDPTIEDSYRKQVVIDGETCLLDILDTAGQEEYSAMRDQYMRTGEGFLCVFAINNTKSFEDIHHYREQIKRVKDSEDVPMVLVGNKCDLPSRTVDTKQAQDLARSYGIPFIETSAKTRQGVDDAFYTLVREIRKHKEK
Sequence of KRAS WT (P62937 whole entry): as the sequence (P62937 whole entry) above
Sequence of KRAS G12C (P01116 1-169 isoform P01116-2 G12C): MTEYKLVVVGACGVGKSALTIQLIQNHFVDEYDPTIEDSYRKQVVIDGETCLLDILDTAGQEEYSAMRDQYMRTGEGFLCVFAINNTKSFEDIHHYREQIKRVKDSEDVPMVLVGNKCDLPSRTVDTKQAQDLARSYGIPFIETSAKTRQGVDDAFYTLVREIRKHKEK
Sequence of KRAS G12C (P62937 whole entry): as the sequence (P62937 whole entry) above
Sequence of KRAS G13C (P01116 1-169 isoform P01116-2 G13C): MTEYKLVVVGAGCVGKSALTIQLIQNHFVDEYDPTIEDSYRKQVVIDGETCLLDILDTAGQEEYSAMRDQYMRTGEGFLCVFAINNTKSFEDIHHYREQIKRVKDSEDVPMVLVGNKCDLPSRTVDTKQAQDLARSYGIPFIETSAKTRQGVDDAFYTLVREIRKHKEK
Sequence of KRAS G13C (P62937 whole entry): as the sequence (P62937 whole entry) above
Sequence of NRAS Q61R (P01111 whole entry Q61R): as the sequence (P01111 whole entry Q61K) above, with K61R counted along it
Sequence of NRAS Q61R (P62937 whole entry): as the sequence (P62937 whole entry) above
Sequence of KRAS G13D (P01116 1-169 isoform P01116-2 G13D limits assumed): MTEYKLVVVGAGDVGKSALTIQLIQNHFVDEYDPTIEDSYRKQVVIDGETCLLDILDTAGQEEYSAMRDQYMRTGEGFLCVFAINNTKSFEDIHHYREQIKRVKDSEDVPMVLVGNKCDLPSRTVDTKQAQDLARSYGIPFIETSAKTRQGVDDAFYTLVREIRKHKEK
Sequence of KRAS G13D (P62937 whole entry): as the sequence (P62937 whole entry) above
Sequence of KRAS Q61H (P01116 1-169 isoform P01116-2 Q61H limits assumed): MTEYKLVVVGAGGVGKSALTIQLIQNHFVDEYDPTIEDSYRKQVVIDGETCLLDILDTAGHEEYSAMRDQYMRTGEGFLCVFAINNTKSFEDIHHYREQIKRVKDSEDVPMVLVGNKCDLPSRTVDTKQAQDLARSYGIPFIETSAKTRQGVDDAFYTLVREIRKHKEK
Sequence of KRAS Q61H (P62937 whole entry): as the sequence (P62937 whole entry) above
Sequence of NRAS WT (P01111 whole entry): as the sequence (P01111 whole entry Q61K) above, with K61Q counted along it
Sequence of NRAS WT (P62937 whole entry): as the sequence (P62937 whole entry) above
Sequence of NRAS G12C (P01111 whole entry G12C): as the sequence (P01111 whole entry Q61K) above, with G12C, K61Q counted along it
Sequence of NRAS G12C (P62937 whole entry): as the sequence (P62937 whole entry) above

IC50 [2] [nM]	IC50 [3, 15] [nM]	IC50 [4, 16] [nM]	IC50 [5, 17] [nM]	IC50 [6, 18] [nM]	IC50 [7, 19] [nM]	IC50 [8, 20] [nM]	IC50 [9, 21] [nM]	IC50 [10, 22] [nM]	IC50 [11, 23] [nM]	IC50 [12, 24] [nM]	IC50 [13, 25] [nM]	IC50 [14, 26] [nM]	Structure (SMILES)	IC50 [1] [nM]	IC50 ([3]; KRAS G12C FRET data, IC50) [nM]	IC50 ([4]; KRAS G12D FRET data, IC50) [nM]	IC50 ([5]; KRAS G12S FRET data, IC50) [nM]	IC50 [6, 27] [nM]	IC50 ([7]; KRAS G13C FRET data, IC50) [nM]	IC50 [8, 28] [nM]	further results
10 to 100	10 to 100	100 to 1000	100 to 1000	100 to 1000	100 to 1000	100 to 1000	100 to 1000	10 to 100	10 to 100	10 to 100	10 to 100	100 to 1000	CCn1c(-c2cccnc2[C@H](C)OC)c2c3cc(ccc31)-c1csc(n1)C[C@H](NC(=O)[C@H](C(C)C)N(C)C(=O)N1CCC13CCOCC3)C(=O)N1CCC[C@H](N1)C(=O)OCC(C)(C)C2 (atropisomer, axis not shown) [Example A601]	10 to 100	–	–	–	–	–	–	–
< 10	–	–	–	–	–	–	–	–	10 to 100	10 to 100	100 to 1000	10 to 100	CCn1c(-c2cccnc2[C@H](C)OC)c2c3cc(ccc31)-c1csc(n1)C[C@H](NC(=O)[C@H](C(C)C)N(C)C(=O)N1CCC[C@H](CN(C)C)C1)C(=O)N1CCC[C@H](N1)C(=O)OCC(C)(C)C2 (atropisomer, axis not shown) [Example A573]	10 to 100	10 to 100	10 to 100	10 to 100	100 to 1000	10 to 100	10 to 100	IC50 [9, 29]: 10 to 100 nM; IC50 [10, 30]: 10 to 100 nM
100 to 1000	100 to 1000	100 to 1000	100 to 1000	100 to 1000	100 to 1000	100 to 1000	100 to 1000	100 to 1000	100 to 1000	10 to 100	100 to 1000	100 to 1000	CCn1c(-c2cccnc2[C@H](C)OC)c2c3cc(ccc31)-c1csc(n1)C[C@H](NC(=O)[C@H](C(C)C)N(C)C(=O)N1C[C@H](OC)[C@@H](N)C1)C(=O)N1CCC[C@H](N1)C(=O)OCC(C)(C)C2 (atropisomer, axis not shown) [Example A580]	100 to 1000	–	–	–	–	–	–	–

Continued, compound first:

Structure (SMILES)	IC50 [2] [nM]	IC50 [3, 15] [nM]	IC50 [4, 16] [nM]	IC50 [5, 17] [nM]	IC50 [6, 18] [nM]	IC50 [7, 19] [nM]	IC50 [8, 20] [nM]	IC50 [9, 21] [nM]	IC50 [10, 22] [nM]	IC50 [11, 23] [nM]	IC50 [12, 24] [nM]	IC50 [13, 25] [nM]	IC50 [14, 26] [nM]	IC50 [1] [nM]	IC50 ([3]; KRAS G12C FRET data, IC50) [nM]	IC50 ([4]; KRAS G12D FRET data, IC50) [nM]	IC50 ([5]; KRAS G12S FRET data, IC50) [nM]	IC50 [6, 27] [nM]	IC50 ([7]; KRAS G13C FRET data, IC50) [nM]	IC50 [8, 28] [nM]	further results
CCn1c(-c2cccnc2[C@H](C)OC)c2c3cc(ccc31)-c1csc(n1)C[C@H](NC(=O)[C@H](C(C)C)N(C)C(=O)OC)C(=O)N1CCC[C@H](N1)C(=O)OCC(C)(C)C2 [Example A138]	10 to 100	–	–	–	–	–	–	–	–	–	–	–	–	10 to 100	100 to 1000	1000 to 10000	1000 to 10000	100 to 1000	100 to 1000	1000 to 10000	IC50 [9, 29]: 100 to 1000 nM; IC50 [10, 30]: 100 to 1000 nM; IC50 ([11]; KRAS Q61H FRET data IC50, KRAS Q61H): 100 to 1000 nM; IC50 ([12]; NRAS Q61K FRET data IC50, NRAS Q61K): 100 to 1000 nM; IC50 ([13]; NRAS Q61R FRET data IC50, NRAS Q61R): 100 to 1000 nM; IC50 ([14]; NRAS WT FRET data IC50, NRAS WT): 100 to 1000 nM
CCn1c(-c2cccnc2[C@H](C)OC)c2c3cc(ccc31)-c1csc(n1)C[C@H](NC(=O)[C@H](C(C)C)N(C)C(=O)[C@H]1CCN(C(=O)CNC)C1)C(=O)N1CCC[C@H](N1)C(=O)OCC(C)(C)C2 [Example A99]	> 10000	100 to 1000	100 to 1000	1000 to 10000	1000 to 10000	100 to 1000	1000 to 10000	100 to 1000	100 to 1000	100 to 1000	1000 to 10000	1000 to 10000	100 to 1000	> 10000	–	–	–	–	–	–	–
CCn1c(-c2cccnc2[C@H](C)OC)c2c3cc(ccc31)-c1csc(n1)C[C@H](NC(=O)[C@H](C(C)C)N(C)C(=O)N(C)C[C@@H]1CCCN1C)C(=O)N1CCC[C@H](N1)C(=O)OCC(C)(C)C2 [Example A504]	100 to 1000	100 to 1000	1000 to 10000	1000 to 10000	1000 to 10000	100 to 1000	100 to 1000	100 to 1000	100 to 1000	100 to 1000	1000 to 10000	1000 to 10000	100 to 1000	100 to 1000	–	–	–	–	–	–	–
